Reference: EP0639585A1, “Elastase inhibitor” (BANYU PHARMACEUTICAL CO., LTD., priority 1993, dated 1995)
pIC50: −log10 of the molar value.

Each molecule was assayed against T1, human leukocyte elastase (Homo sapiens, UniProt P08246) (assay: Elastase inhibition activity (fluorogenic substrate N-methoxy succinyl-L-alanyl-L-alanyl-L-prolyl-L-valine 4-methylcoumaryl-7-amide)). Details: 0.2M tris buffer pH8.5, 1M sodium chloride, 40µM substrate, 37° C, 20 minutes incubation; read-out: IC₅₀.
T1 sequence (P08246 30-267): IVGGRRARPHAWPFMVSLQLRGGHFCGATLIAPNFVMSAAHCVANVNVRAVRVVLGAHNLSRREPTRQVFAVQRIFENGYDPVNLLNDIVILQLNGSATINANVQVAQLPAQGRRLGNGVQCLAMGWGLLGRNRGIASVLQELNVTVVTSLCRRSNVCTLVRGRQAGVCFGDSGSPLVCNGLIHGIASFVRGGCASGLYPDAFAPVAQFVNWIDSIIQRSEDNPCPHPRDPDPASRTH
Assay type: biochemical
Procedure: The inhibition activities to human leukocyte elastase were determined as follows: Each 1µl of DMSO solution of the compound and DMSO (for reference) were added to each 250µl of 0.2M tris buffer solutions (pH8.5) containing 40µM N-methoxy succinyl-L-alanyl-L-alanyl-L-prolyl-L-valine 4-methylcoumaryl-7-amide and 1M sodium chloride, and the mixtures were pre-incubated at 37° C for three minutes. Then 50µl of 0.2M tris buffer solutions (pH8.5) containing 0.2µg/ml human leukocyte elastase were added to the mixtures and the mixtures were incubated at 37° C for 20 minutes. Each 1ml of 2M acetic acid aqueous solutions were added to the mixture and the reactions were stopped and then fluorescences of the supernatants were measured and the activities were calculated. As the results, IC₅₀ values were as follows: the compound 6 = 0.78µM, the compound 4 = 6.32µM, the compound 1 = 8.48µM and the compound 5 = 9.94µM.

**Q.** `CCC[C@H](NC(=O)[C@@H]1CCCN1C(=O)[C@H](CC(C)C)NC(C)=O)C(=O)C(=O)Cc1ccccc1` [Compound 1, (4S)-4-(N-acetyl-L-leucyl-L-prolyl)amino-1-phenyl-2,3-heptanedione] was tested. Which pIC50 did it give?
**A.** 5.07

**Q.** How did the pIC50 turn out when `CCC[C@H](NC(=O)[C@@H]1CCCN1C(=O)[C@H](CC(C)C)NC(=O)OCc1ccccc1)C(=O)C(=O)CC1CCCCC1` [Compound 4, (4S)-4-(N-benzyloxycarbonyl-L-leucyl-L-prolyl)amino-1-cyclohexyl-2,3-heptanedione] was run?
**A.** 5.20

**Q.** `CCC[C@H](NC(=O)[C@@H]1CCCN1C(=O)[C@H](CC(C)C)NC(=O)OCc1ccccc1)C(=O)C(=O)CCC1CCCCC1` [Compound 5, (5S)-5-(N-benzyloxycarbonyl-L-leucyl-L-prolyl)amino-1-cyclohexyl-3,4-octanedione] was tested. Which pIC50 did it give?
**A.** 5.00

**Q.** `CCC[C@H](NC(=O)[C@@H]1CCCN1C(=O)[C@H](CC(C)C)NC(=O)OCc1ccccc1)C(=O)C(=O)Cc1ccccc1` [Compound 6, (4S)-4-(N-benzyloxycarbonyl-L-leucyl-L-prolyl)amino-1-phenyl-2,3-heptanedione] was tested. Which pIC50 did it give?
**A.** 6.11
